# According to patent US20260234159A1, “SMALL MOLECULE TREATMENT OF FATTY LIVER DISEASE AND HCC” (SCANDIEDGE THERAPEUTICS AB, priority 2023, published 2026):
# Legend:
# HepG2 cells [1] = assay: Mitochondrial membrane potential assay (TMRE); type: cell-based, human; conditions: 10 μM, one day
# Method: (§1) HepG2 cells were seeded into a 6-well plate at 400,000 cells per well. After treatment with the compounds at desired concentration and time, TMRE (ab113852, abcam), Autophagy (ab139484, abcam), ROS (ab113851, abcam), and Lipid peroxidation (ab243377, abcam) assay were performed according to manufacturer's instructions. Fluorescence images were taken using ZOE™ Fluorescent Cell Imager (Biorad) and ROI of fluorescence intensity was measured and calculated by Image J. For microplate reader florescence assay, 40,000 of HepG2 cells were seeded into a 96-well plate and triplicated. GFP (Ex480 nm, Em530 nm) and RFP (Ex549 nm, Em574 nm) were measured using a microplate reader (Hidex Sense Meta Plus).
# Caspase 3 = assay: Western blot, active caspase 3; type: cell-based, human; conditions: 10 μM, 2 days
# Method: (§2) HepG2 cells were seeded into a 6-well plate at 400,000 cells per well. After treatment with 10 μM of JNK-IN-5A and its derivatives for two days, lysates were harvested with CelLytic M (C2978, Sigma-Aldrich). 20 μg lysate was prepared with 2× Laemmli Sample Buffer (1610737, Biorad). SDS PAGE were performed using Mini-PROTEAN® TGX™ Precast Gels (Bio-Rad) and transferred using Trans-Blot® Turbo™ Transfer System (Bio-Rad). Primary antibody, PARP (95425, Cell signalling), Caspase 3 (ab32042, abcam), Bcl-2 (ab182858), STAT1 (HPA000982, Merk), PKL (06653, Sigma), PKM (4053S, Cell signalling), GAPDH (ab8245, abcam), P53 (ab32389, abcam), p21 (ab109199, abcam), p-S349 p62 (ab211324, abcam), p62 (ab109012, abcam), c-Myc (ab32072, abcam), GPX4 (ab125066, abcam), MMP9 (MA5-32705, Invitrogen), β-actin (ab8227, abcam), and α-tubulin (ab7291, abcam) were blotted overnight and Goat Anti-Rabbit HRP (ab205718) and goat anti-mouse IgG-HRP (sc2005, Santa Cruz Biotechnology, Inc.) were blotted for secondary antibody for one hour. ImageQuantTMLAS 500 (29-0050-63, GE) was used to detect protein bands.
# HepG2 cells [2] = assay: Wound healing assay; type: cell-based; conditions: Homo sapiens, HepG2, 96 h, day 4, untreated 100% wound closure, read-out: wound healing delayed by
# Method: (§3) Transwell membrane was coated with 100 μl collagen (Sigma C3867, USA) diluted with PBS to a concentration of 1 mg/ml. After overnight incubation at 4° C., the collagen solution was discarded and the membrane was washed with PBS. 100,000 cells in 200 μl serum free media together with the tested compounds were added into the upper well and 600 μl of 10% FBS supplemented growth media was added to the lower well as an invasive attractant in a 24-well plate. Cells were incubated at 37° C. in a CO2 incubator for one day. The cells were fixed with 3.7% formaldehyde for 30 minutes at room temperature and washed with PBS twice. The cells were stained with 1% crystal violet in PBS for 20 minutes and residual cells in inner membrane were swabbed gently with a cotton swab. Invaded cells located at the outer membrane were imaged by ZOE Fluorescent Cell Imager (Bio-Rad, USA) and counted by image. For wound healing assay, 100,000 cells per well were seeded into 24-well plates and grown until 95-100% confluent. Linear wound was created by using a 200 μl pipette tip. Image was recorded at the time point of day 0 until control group wound closure with 1 μM of compounds by ZOE Fluorescent Cell Imager (Bio-Rad, USA). Wound areas were measured using ImageJ software.
# PARP = assay: Western blot, cleaved PARP; type: cell-based, human; conditions: 10 μM, 2 days
# Method: as §2
# GPX4 = assay: Western blot, GPX4; type: cell-based, human; conditions: compared to the control
# Method: as §2
# JNK1/2/3 = assay: Western blot, JNK1/2/3 P54 and p46 isoforms; type: cell-based, human; conditions: 10 μM, 2 days
# Method: HepG2 cells were seeded into a 6-well plate at 400,000 cells per well. After treatment with 10 μM of JNK-IN-5A and its derivatives for two days, lysates were harvested with CelLytic M (C2978, Sigma-Aldrich). […] SDS PAGE were performed using Mini-PROTEAN® TGX™ Precast Gels (Bio-Rad) and transferred using Trans-Blot® Turbo™ Transfer System (Bio-Rad). […] ImageQuantTMLAS 500 (29-0050-63, GE) was used to detect protein bands.
# c-Myc = assay: Nuclear protein western blot, c-Myc; type: cell-based, human; conditions: 10 μM, 2 days
# Method: as §2
# p21 = assay: Nuclear protein western blot, p21; type: cell-based, human; conditions: 10 μM, 2 days
# Method: as §2
# HepG2 cells [3] = assay: Invasion assay (transwell); type: cell-based, human
# Method: The effects of the treatment with the compounds on the invasion ability of HepG2 and Huh7 cells were determined by 8 μm pores transwell chamber (Corning™ 3464, USA).
# as §3
# [4] = MTT cell viability / IC50 in growth media; type: cell-based, human; conditions: human, HepG2 cells, 10 μM; for viability at 4 day, 10 µM: day 4; for viability at 2 days, 10 µM: treatment for 2 days
# Method: (§4) The cytotoxic effects of the synthesized drugs on the HepG2 cells were tested by MTT (Thiazolyl Blue Tetrazolium Bromide) method. HepG2 cells were seeded 2×10^4 cells per well in 96-well plate in 200 μL growth media. […] After the incubation period, 5 mg/ml MTT (M2128, Sigma-Aldrich) solution in PBS (10 μL) was added to each well. After 1 hr, the MTT solution and all media were removed from the wells. 100 μl of DMSO was added and mixed to dissolve the formazan crystals. Cell viability was analysed by measuring the absorbance of the dissolved formazan in a microplate reader at a wavelength of 570 nm with microplate reader (Hidex Sense Beta Plus).
# (§5) HepG2 cells were maintained and used with RPMI 1640 (R2405, Sigma-Aldrich) supplemented with 10% fetal bovine serum (F7524, Sigma-Aldrich), 1% P/S (P4333, Sigma-Aldrich). 20,000 cells per well of HepG2 cells were seeded into a 96-well plate and triplicated for MTT assay and LDH assay. Cell viability was measured by MTT assay (M6494, ThermoFisher) and cytotoxicity was measured by LDH assay kit (ab65393, abcam) by following manufacturer's instructions. Optical density (O.D) was numerated using a microplate reader (Hidex Sense Meta Plus).
# HepG2 cells [5] = assay: MTT cell viability / IC50 in growth media; type: cell-based, human; conditions: 30 μM to 30 nM; for IC50: Homo sapiens, 48 h, HepG2, treatment for 2 days
# Method: as §4, §5
# HepG2 cells [6] = assay: Autophagy assay; type: cell-based, human; conditions: 10 μM, one day
# Method: as §1
# HepG2 cells [7] = assay: FACs analysis with PI staining (cell cycle); type: cell-based, human; conditions: for cell cycle distribution / arrest: PI FACS
# Method: 400,000 HepG2 cells were seeded in a 6-well plated and treated with 10 μM of the compounds for 2 days. Cells were fixed with 70% ethanol and stained with 50 μg/ml PI. Prepared cells were analysed using BD FACS Canto II Flow Cytometry system at PE-A channel 10,000 cells per group. The data was histogram plotted with BD FACSDiva 9.0.
SMILES,mitochondrial membrane potential (HepG2 cells [1]),active caspase 3 levels (Caspase 3) [times],inhibition at 1 µM (HepG2 cells [2]) [%],increase in cleaved PARP vs untreated control (PARP) [times],GPX4 expression levels (GPX4),JNK1/2/3 p46 expression (JNK1/2/3) [times],nuclear c-Myc expression (c-Myc),p21 nuclear localization (p21),"invasiveness reduced by (HepG2 cells [3]; 1 μM, 24 hr)","viability at 4 day, 10 µM [4] [%]","viability at 2 days, 10 µM [4] [%]",dose dependence of cell viability (HepG2 cells [5]),IC50 (HepG2 cells [5]) [µM],autophagy GFP signals (HepG2 cells [6]),cell cycle distribution / arrest (HepG2 cells [7]),"Cell population S (HepG2 cells [7]; PI FACs, 10 μM, 2 days)","inhibition at 1 µM (HepG2 cells [3]; Homo sapiens, HepG2, 24 hr, read-out: invasiveness reduced by) [%]","Cell population G0/G1 (HepG2 cells [7]; PI FACs, 10 μM, 2 days)","Cell population G2/M (HepG2 cells [7]; PI FACs, 10 μM, 2 days)"
"CNC(=O)c1cc(Oc2ccc(NC(=O)Nc3ccc(Cl)c(C(F)(F)F)c3)cc2)ccn1 [Sorafenib, sorafenib, reference compound]",decrease,4.35,35,10,significantly higher,0.81,decreased,not,28.7%±2.9,19.2,51,dose-dependent decrease in cell viability,8.64,did not induce autophagy,did not alter the cell cycle distribution significantly,10.1,–,–,–
"CNC(=O)c1cc(Oc2ccc(NC(=O)Nc3ccc(Cl)c(C(F)(F)F)c3)c(F)c2)ccn1 [Regorafenib, regorafenib, reference compound]",decrease,3.61,44.8,16,significantly higher,0.65,decreased,not,–,13.4,41.1,dose-dependent decrease in cell viability,5.91,did not induce autophagy,did not alter the cell cycle distribution significantly,9.7,21,70.5,14.9
